Assay results from patent publication US10342881B2, “Manganese-oxo clusters as contrast agents for magnetic resonance imaging” (Georgetown University, priority 2008, dated 2019).

What was measured:
[1] = tissues outside of liver and kidney; cited from earlier work
[2] = NMR relaxivity from slope of 1/T1 or 1/T2 versus concentration; assay type: physicochemical; conditions: for r1 / r2: D2O and dilute acetic acid, 500 MHz
Description: Fresh samples for NMR measurements were prepared immediately prior to use. Both the cluster and cluster coated beads were dissolved in distilled water, and filtered via syringe filter. T1 measurements were measured using the inversion recovery pulse sequence, in a field of 300 MHz or 500 MHz, at room temperature with a least squares fit to 10 data points. The T2 was obtained using a conventional spin echo sequence on a 300 MHz spectrometer and using Carr-Purcell-Meiboom-Gill (CPMG) sequence on 500 MHz Bruker spectrometer. Relaxivity was determined from the slope of a plot of 1/T1 or 1/T2 versus concentration of Mn-12 and Mn-12 coated beads. The cluster concentration was determined by atomic absorption of Mn.

[3] = Solubility and stability of Mn-12 in water and aqueous acetic acid; assay type: physicochemical
From the text: Based on simple criteria, Mn-12 appears ideal as a contrast agent.

[4] = RT, per mM cluster, listed as Mn-12

Q: With `Cc1[nH+]cc(COP(=O)([O-])[O-])c(CN(CCN(CC(=O)[O-])Cc2c(COP(=O)([O-])O)c[nH+]c(C)c2O)CC(=O)[O-])c1O.[Mn].[Na+].[Na+].[Na+]` [Mn-DPDP, manganese dipyrodoxaldiphosphate] as the compound, how does the “effect on T1 and T2 in tissues” value [1] read?
A: Its value is “only limited effect on T1 and T2”.

Q: With “[Mn12O12(O2CCH3)16 (H2O)4] [Mn12O12Ac16]” as the compound, how does the “temperature dependence of relaxivity” value ([2]; 37° C. versus room temperature) read?
A: Its value is “decreased at higher temperatures”.

Q: What about the r1 ([2]; 37° C.) of the same compound?
A: The r1 was 2.7 ± 0.1 mM⁻¹ s⁻¹.

Q: What about the r2 ([2]; 37° C.) of the same compound?
A: The r2 was 34 ± 1 mM⁻¹ s⁻¹.

Q: What about the r1 ([2]; RT, per mM cluster) of the same compound?
A: The r1 was 3.0 ± 0.1 mM⁻¹ s⁻¹.

Q: And the r2 ([2]; RT, per mM cluster)?
A: The r2 was 48 ± 1 mM⁻¹ s⁻¹.

Q: What about the r1 [2, 4] of the same compound?
A: The r1 was 3.0 ± 0.1 mM⁻¹ s⁻¹.

Q: What about the r2 [2, 4] of the same compound?
A: Its r2 is 48 ± 1 mM⁻¹ s⁻¹.

Q: What about the “field dependence of relaxivity” value ([2]; measurements at 300, 400, and 500 MHz) of the same compound?
A: The value was “increase with higher fields”.

Q: What about the “stability in presence of excess carboxylic acid” value ([3]; aqueous acetic acid solutions, re-isolated after many hours) of the same compound?
A: The value was “stable in aqueous acetic acid solutions”.

Q: What about the “behaviour upon dissolution in distilled water” value ([3]; distilled water) of the same compound?
A: Its value is “within minutes a flocculent material forms”.
